# Assay results taken from PMC11532494 (Nature Communications, 2024).
# “And” between values parts separate entries of the source, which are not always exact repeats. Identical values can stand only once. Like-named read-outs stand apart in the source and are kept apart here.
# How the values were obtained:
# PsApaH (4) = PsApaH (4) (Pseudomonas sp. M30-35, UniProt A0A1Y0KY79); experiment: Acetyl-polyamine deacetylase assay; assay type: biochemical; conditions: single samples (replicates)
# PA1409 = PA1409 (Pseudomonas aeruginosa, UniProt Q9I3T5); experiment: Acetyl-polyamine deacetylase assay (positive control); assay type: biochemical; conditions: for acetate released, g/l / acetate released, mM / mM normalized to enzyme concentration: PA1409 (positive control enzyme), single samples (replicates); for A1-A2: absorbance difference between the two time points; for A1-A2 / (A1-A2)-B: sheet Figure 2d; for (A1-A2)-B: absorbance difference minus mean blank
# VsHdaH (1b) = assay type: biochemical, Vibrio sp.; conditions: VsHdaH (1b) 3µM; single samples (replicates)
# RsPrpH (1b) = experiment: Acetyl-polyamine deacetylase assay; assay type: biochemical, Rhizorhabdus sp.; conditions: RsPrpH 3µM; single samples (replicates)
# RwDmhA (1b) = RwDmhA (1b) (Rhizorhabdus wittichii, UniProt A0A067XIQ6); assay type: biochemical; conditions: RwDmhA (1b) 3µM; single samples (replicates)
# KpHdaH (1b) = KpHdaH (1b) (Klebsiella pneumoniae, UniProt A0A377Z5F6); assay type: biochemical; conditions: KpKDAC (1b); single samples (replicates)
# BsAcuC (2c) = molecular target: T1, BsAcuC (2c) (Bacillus subtilis, UniProt P39067); experiment: Acetyl-polyamine deacetylase assay; assay type: biochemical; conditions: BsAcuC (2c) 3µM; single samples (replicates)
# T1 construct: made in house; host or cells: E. coli BL21 (DE3)
# T1 sequence (P39067 1-387): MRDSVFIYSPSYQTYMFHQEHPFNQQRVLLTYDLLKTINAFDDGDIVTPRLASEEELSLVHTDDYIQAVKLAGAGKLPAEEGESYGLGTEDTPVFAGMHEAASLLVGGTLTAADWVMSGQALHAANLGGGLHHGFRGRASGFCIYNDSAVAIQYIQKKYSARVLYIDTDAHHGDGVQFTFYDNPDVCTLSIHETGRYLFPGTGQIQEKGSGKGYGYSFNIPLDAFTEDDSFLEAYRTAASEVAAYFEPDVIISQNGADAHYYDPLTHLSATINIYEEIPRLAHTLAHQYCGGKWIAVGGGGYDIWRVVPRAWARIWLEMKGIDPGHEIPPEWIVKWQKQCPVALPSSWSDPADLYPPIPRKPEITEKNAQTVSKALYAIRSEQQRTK
# VcHdaH (5b) = experiment: Acetyl-polyamine deacetylase assay; assay type: biochemical, Vibrio cholerae; conditions: VcHdaH (5b) 6µM; single samples (replicates)
# LcApaH (3) = LcApaH (3) (Legionella cherrii, UniProt A0A0W0SGS1); assay type: biochemical
# LpApaH (3) = LpApaH (3) (Legionella pneumophila, UniProt A0A2S6EWV0); assay type: biochemical
# [1] = LcApaH (3), single samples (replicates)
# RwDmhA (1b), sequence (A0A067XIQ6 1-369): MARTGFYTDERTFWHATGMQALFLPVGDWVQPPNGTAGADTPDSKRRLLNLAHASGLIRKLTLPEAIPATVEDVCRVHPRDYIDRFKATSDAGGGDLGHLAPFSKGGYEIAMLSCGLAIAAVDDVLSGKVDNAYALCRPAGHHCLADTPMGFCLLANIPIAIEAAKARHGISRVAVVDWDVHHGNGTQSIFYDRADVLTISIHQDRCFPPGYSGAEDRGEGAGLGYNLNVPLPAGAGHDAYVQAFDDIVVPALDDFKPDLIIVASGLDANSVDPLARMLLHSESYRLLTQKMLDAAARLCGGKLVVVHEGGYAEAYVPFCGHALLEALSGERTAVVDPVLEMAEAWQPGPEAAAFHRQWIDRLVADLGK
# PA1409, sequence (Q9I3T5 whole entry): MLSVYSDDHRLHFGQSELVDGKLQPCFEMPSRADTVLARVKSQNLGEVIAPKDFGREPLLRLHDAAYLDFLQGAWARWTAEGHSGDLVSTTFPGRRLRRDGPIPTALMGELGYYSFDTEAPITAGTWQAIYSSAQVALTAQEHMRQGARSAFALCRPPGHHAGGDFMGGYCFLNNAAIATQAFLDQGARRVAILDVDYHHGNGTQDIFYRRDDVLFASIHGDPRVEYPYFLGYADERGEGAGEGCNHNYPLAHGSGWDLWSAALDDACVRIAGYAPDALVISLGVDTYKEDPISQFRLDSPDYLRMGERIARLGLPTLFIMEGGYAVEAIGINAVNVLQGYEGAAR
# PsApaH (4), sequence (A0A1Y0KY79 1-342 limits assumed): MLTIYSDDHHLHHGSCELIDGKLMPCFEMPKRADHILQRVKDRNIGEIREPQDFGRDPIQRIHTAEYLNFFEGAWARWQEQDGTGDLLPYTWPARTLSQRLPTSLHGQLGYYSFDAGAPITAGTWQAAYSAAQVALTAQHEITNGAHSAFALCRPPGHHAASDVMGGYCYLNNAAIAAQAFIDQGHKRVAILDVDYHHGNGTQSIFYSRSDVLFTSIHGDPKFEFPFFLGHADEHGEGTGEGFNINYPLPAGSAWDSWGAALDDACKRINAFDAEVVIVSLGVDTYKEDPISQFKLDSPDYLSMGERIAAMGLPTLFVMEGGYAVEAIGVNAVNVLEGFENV
# LpApaH (3), sequence (A0A2S6EWV0 1-426): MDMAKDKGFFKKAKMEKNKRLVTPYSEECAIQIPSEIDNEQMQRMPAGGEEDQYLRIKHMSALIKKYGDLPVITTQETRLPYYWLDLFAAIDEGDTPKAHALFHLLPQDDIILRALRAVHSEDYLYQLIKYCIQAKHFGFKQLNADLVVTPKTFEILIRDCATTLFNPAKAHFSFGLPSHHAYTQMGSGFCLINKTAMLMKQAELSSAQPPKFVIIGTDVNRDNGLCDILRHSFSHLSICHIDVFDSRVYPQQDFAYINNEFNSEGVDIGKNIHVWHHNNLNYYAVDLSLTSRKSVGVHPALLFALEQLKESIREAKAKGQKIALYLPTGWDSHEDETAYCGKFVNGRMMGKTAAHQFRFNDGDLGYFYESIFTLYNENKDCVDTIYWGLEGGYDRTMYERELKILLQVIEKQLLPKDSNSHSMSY
# KpHdaH (1b), sequence (A0A377Z5F6 1-371): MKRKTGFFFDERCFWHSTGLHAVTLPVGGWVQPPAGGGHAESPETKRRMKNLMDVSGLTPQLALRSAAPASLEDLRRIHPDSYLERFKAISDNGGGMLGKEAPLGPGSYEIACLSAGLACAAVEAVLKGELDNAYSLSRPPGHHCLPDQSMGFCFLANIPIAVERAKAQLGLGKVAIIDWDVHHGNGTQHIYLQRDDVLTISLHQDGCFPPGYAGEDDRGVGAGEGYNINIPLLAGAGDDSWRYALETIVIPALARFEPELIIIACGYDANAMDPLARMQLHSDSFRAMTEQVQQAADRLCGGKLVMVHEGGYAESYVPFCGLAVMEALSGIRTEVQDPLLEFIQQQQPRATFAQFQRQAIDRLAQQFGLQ
# LcApaH (3), sequence (A0A0W0SGS1 1-425): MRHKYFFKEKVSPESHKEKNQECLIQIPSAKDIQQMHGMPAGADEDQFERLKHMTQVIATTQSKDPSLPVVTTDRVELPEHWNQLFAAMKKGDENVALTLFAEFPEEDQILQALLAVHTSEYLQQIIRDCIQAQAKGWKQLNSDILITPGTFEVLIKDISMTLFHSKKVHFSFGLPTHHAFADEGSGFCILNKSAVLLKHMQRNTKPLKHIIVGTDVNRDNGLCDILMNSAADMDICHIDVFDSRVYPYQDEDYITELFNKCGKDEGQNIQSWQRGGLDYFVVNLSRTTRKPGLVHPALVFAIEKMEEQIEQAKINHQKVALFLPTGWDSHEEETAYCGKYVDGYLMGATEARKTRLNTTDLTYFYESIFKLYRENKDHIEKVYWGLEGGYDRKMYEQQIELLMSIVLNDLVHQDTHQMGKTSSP
Structure (SMILES),"acetate released, g/l (PA1409)","acetate released, mM (PA1409)","acetate released, g/l (VsHdaH (1b))","acetate released, mM (VsHdaH (1b))",mM normalized to enzyme concentration (VsHdaH (1b)),"acetate released, g/l (RsPrpH (1b))","acetate released, mM (RsPrpH (1b))",mM normalized to enzyme concentration (RsPrpH (1b)),"acetate released, g/l (RwDmhA (1b))","acetate released, mM (RwDmhA (1b))",mM normalized to enzyme concentration (RwDmhA (1b)),"acetate released, g/l (KpHdaH (1b))","acetate released, mM (KpHdaH (1b))",mM normalized to enzyme concentration (KpHdaH (1b)),"acetate released, g/l (BsAcuC (2c))","acetate released, mM (BsAcuC (2c))",mM normalized to enzyme concentration (BsAcuC (2c)),"acetate released, g/l (VcHdaH (5b))","acetate released, mM (VcHdaH (5b))",mM normalized to enzyme concentration (VcHdaH (5b)),other results
CC(=O)NCCCCCN [N1-acetyl-cadaverine],0.1346 g/L,2.242 mM,0.004047 g/L and 0.005091 g/L and 0.00483 g/L,0.06739 mM and 0.08478 mM and 0.08044 mM,0.02246 mM and 0.02826 mM and 0.02681 mM,0.02441 g/L and 0.02154 g/L and 0.02285 g/L,0.4065 mM and 0.3587 mM and 0.3804 mM,0.1355 mM and 0.1196 mM and 0.1268 mM,0.01449 g/L and 0.01841 g/L and 0.0252 g/L,0.2413 mM and 0.3065 mM and 0.4196 mM,0.08044 mM and 0.1022 mM and 0.1399 mM,0.005 g/L and 0.003 g/L and 0.002 g/L,0.0755 mM and 0.044 mM and 0.0346 mM,0.0151 mM and 0.0088 mM and 0.00692 mM,0.0001305 g/L and -0.0003916 g/L and -0.01371 g/L,0.002174 mM and -0.006522 mM and -0.2283 mM,0.0007246 mM and -0.002174 mM and -0.07609 mM,0.0009138 g/L and -0.0001305 g/L and 0.0003916 g/L,0.01522 mM and -0.002174 mM and 0.006522 mM,0.002536 mM and -0.0003623 mM and 0.001087 mM,"acetate released, g/l (PsApaH (4)): 0.08943 g/L and 0.09204 g/L and 0.09674 g/L; acetate released, mM (PsApaH (4)): 1.489 mM and 1.533 mM and 1.611 mM; mM normalized to enzyme concentration (PA1409): 22.4156 mM; A1-A2 (PA1409): 0.543; (A1-A2)-B (PA1409): 0.5015; acetate released, g/l (LcApaH (3); [1]): 0.0133 g/L and 0.011 g/L; acetate released, mM (LcApaH (3); [1]): 0.22 mM and 0.18 mM; mM normalized to enzyme concentration (LcApaH (3); [1]): 0.22 mM and 0.18 mM; acetate released, g/l (LpApaH (3)): 0.0236 g/L and 0.04 g/L; acetate released, mM (LpApaH (3)): 0.39 mM and 0.70 mM; mM normalized to enzyme concentration (LpApaH (3)): 0.20 mM and 0.35 mM"
CC(=O)NCCCCN [N1-acetyl-putrescine],–,–,0.001436 g/L and 0.0003916 g/L and -0.0006527 g/L,0.02391 mM and 0.006522 mM and -0.01087 mM,0.007971 mM and 0.002174 mM and -0.003623 mM,0.003525 g/L and 0.00483 g/L and 0.003003 g/L,0.0587 mM and 0.08044 mM and 0.05 mM,0.01957 mM and 0.02681 mM and 0.01667 mM,0.001436 g/L and 0.006919 g/L and 0.0009138 g/L,0.02391 mM and 0.1152 mM and 0.01522 mM,0.007971 mM and 0.03841 mM and 0.005072 mM,0.01615 g/L and 0.02135 g/L and 0.02198 g/L,0.2105 mM and 0.2784 mM and 0.2865 mM,0.02105 mM and 0.02784 mM and 0.02865 mM,0.001436 g/L and 0.00248 g/L and -0.003264 g/L,0.02391 mM and 0.0413 mM and -0.05435 mM,0.007971 mM and 0.01377 mM and -0.01812 mM,-0.003786 g/L and 0.0001305 g/L and 0.01136 g/L,-0.06304 mM and 0.002174 mM and 0.1891 mM,-0.01051 mM and 0.0003623 mM and 0.03152 mM,"A1-A2 (PA1409): 0.278 and 0.275; (A1-A2)-B (PA1409): 0.21 and 0.207; acetate released, g/l (LcApaH (3)): 0.002824 g/L and 0.001479 g/L; acetate released, mM (LcApaH (3)): 0.04702 mM and 0.02463 mM; mM normalized to enzyme concentration (LcApaH (3)): 0.03135 mM and 0.01642 mM"
CC(=O)NCCCNCCCCN [N1-acetyl-spermidine],–,–,-0.0001305 g/L,-0.002174 mM,-0.0007246 mM,0.0006527 g/L and 0.002219 g/L,0.01087 mM and 0.03696 mM,0.003623 mM and 0.01232 mM,-0.0001305 g/L and -0.0003916 g/L,-0.002174 mM and -0.006522 mM,-0.0007246 mM and -0.002174 mM,0.007111 g/L and 0.006667 g/L,–,0.02368 mM and 0.0222 mM,0.001175 g/L and 0.0003916 g/L,0.01957 mM and 0.006522 mM,0.006522 mM and 0.002174 mM,-0.0009138 g/L and 0.0001305 g/L,-0.01522 mM and 0.002174 mM,-0.002536 mM and 0.0003623 mM,"acetate released, g/l (PsApaH (4)): 0.0007937 g/L and 0.001587 g/L; acetate released, mM (PsApaH (4)): 0.01322 mM and 0.02643 mM; A1-A2 (PA1409): 0.377 and 0.374; (A1-A2)-B (PA1409): 0.331 and 0.328"
CC(=O)NCCCNCCCCNCCCN [N1-acetyl-spermine],0.1471 g/L and 0.1516 g/L,2.449 mM and 2.524 mM,-0.003525 g/L and 0.003264 g/L and 0.003525 g/L,-0.0587 mM and 0.05435 mM and 0.0587 mM,-0.01957 mM and 0.01812 mM and 0.01957 mM,-0.0006527 g/L and -0.0001305 g/L and -0.004569 g/L,-0.01087 mM and -0.002174 mM and -0.07609 mM,-0.003623 mM and -0.0007246 mM and -0.02536 mM,0.0001305 g/L,0.002174 mM and -0.002174 mM,-0.01812 mM and 0.0007246 mM and -0.0007246 mM,0.02153 g/L and 0.02371 g/L and 0.03188 g/L,0.3585 mM and 0.3948 mM and 0.5309 mM,0.07169 mM and 0.07895 mM and 0.1062 mM,0.002742 g/L and 0.0001305 g/L,0.04565 mM and 0.002174 mM,0.01522 mM and 0.0007246 mM,-0.0009138 g/L and -0.003003 g/L and -0.003264 g/L,-0.01522 mM and -0.05 mM and -0.05435 mM,-0.002536 mM and -0.008333 mM and -0.009058 mM,mM normalized to enzyme concentration (PA1409): 24.4938 mM and 25.2427 mM
CC(=O)NCCCNCCCCNCCCNC(C)=O [N1/N12 diacetyl-spermine],0.2048 g/L and 0.2032 g/L,3.41 mM and 3.383 mM,0.00248 g/L and 0.0003916 g/L,0.0413 mM and 0.006522 mM,0.01377 mM and 0.002174 mM and 0.003623 mM,0.002219 g/L and 0.001175 g/L,0.03696 mM and 0.01957 mM,0.01232 mM and 0.006522 mM,0.001697 g/L and 0.004569 g/L,0.02826 mM and 0.07609 mM,0.00942 mM and 0.02536 mM,0.007868 g/L and 0.006091 g/L and 0.003807 g/L,0.131 mM and 0.1014 mM and 0.0634 mM,0.0262 mM and 0.02029 mM and 0.01268 mM,0.003525 g/L and 0.003264 g/L and -0.001436 g/L,0.0587 mM and 0.05435 mM and -0.02391 mM,0.01957 mM and 0.01812 mM and -0.007971 mM,0.001436 g/L and 0.0001305 g/L and 0.0006527 g/L,0.02391 mM and 0.002174 mM and 0.01087 mM,0.003986 mM and 0.0003623 mM and 0.001812 mM,"mM normalized to enzyme concentration (PA1409): 34.0974 mM and 33.8331 mM; acetate released, g/l (LcApaH (3)): 0.00344 g/L; acetate released, mM (LcApaH (3)): 0.06 mM; mM normalized to enzyme concentration (LcApaH (3)): 0.06 mM; acetate released, g/l (LpApaH (3)): 0.003439 g/L and 0.00291 g/L; acetate released, mM (LpApaH (3)): 0.05727 mM and 0.04846 mM; mM normalized to enzyme concentration (LpApaH (3)): 0.02863 mM and 0.02423 mM"
